In series [1] the test system is T1, Corynebacterium glutamicum WT(pXMJ19).
T1 construct: RES167 wild type carrying empty vector pXMJ19
Nature of the series: microbe, parasite or virus in culture. The conditions noted are these: LB, 30 °C, wild type with empty vector pXMJ19; for MIC: Corynebacterium glutamicum, read-out: MIC (µg ml^−1) / WT(pXMJ19). Also on record: species or system Corynebacterium glutamicum RES167 (pXMJ19); Broth dilution MIC in LB at 30 °C, serial 2-fold dilution, growth checked after 1 to 2 days. The method, then: Disk diffusion assays were performed for antibiotics, alkylating agents, and oxidative agents according to Rawat et al.. Briefly, cells were grown to the mid-log phase and a lawn of cells was plated onto LB plates. After the paper disks were placed into the plates, various amounts of agents (10 µl) were added to the disk. The disks were allowed to dry and the plates were incubated for 2 to 3 days. For the minimal broth dilution assay, antibiotics were serially diluted (0.5×) in LB medium (1 ml) and cells (A 600 = 1.6) were inoculated. After 1 to 2 days of incubation at 30°C, the tubes were checked for growth. The bacteriostasis growth curve assay was used to determine the sensitivity of C. glutamicum to heavy metal stress. LB-grown strains (50 µl) were transferred to LB broth (5 ml), with and without addition of various concentrations of heavy metals (Cd^2+, Ni^2+, Cr^2+ and Cu^2+) and incubated at 30°C. The cellular growth was monitored turbidimetrically (A 600) after 24 h. All assays were performed in triplicate. First, sensitivity of C. glutamicum strains to Macrolides and β-Lactams was tested. […] These observations indicate that the Mca-dependent detoxification pathway indeed plays a major role in the detoxification of rifamycin S. However, no significant difference was found in the size of growth inhibition zones around erythromycin, lincomycin and spectinomycin (all belong to […]) between WT(pXMJ19), Δmca(pXMJ19) and the complementary strain Δmca(pXMJ19-mca) (Table 3; p>0.05). Similar trend was obtained in the MIC data (Table 4). […] Bacterial strains used in this study are listed in S1 Table. Escherichia coli and C. glutamicum strains were routinely cultured in Luria-Bertani (LB) broth or on LB plates at 37°C and 30°C, respectively. For generation of mutants and maintenance of C. glutamicum, brain heart infusion broth with 0.5 M sorbitol (BHIS) was used. The C. glutamicum RES167 strain was the parent of all derivatives used in this study. In-frame deletions were generated by the method as described previously. Cell growth was monitored by measuring absorbance at 600 nm (A 600). Antibiotics were added at the following concentrations: kanamycin, 50 µg ml^−1 for E. coli and 25 µg ml^−1 for C. glutamicum; nalidixic acid, 40 µg ml^−1 for C. glutamicum; chloramphenicol, 20 µg ml^−1 for E. coli and 10 µg ml^−1 for C. glutamicum.

The test system of series [2] is CC(=O)N[C@@H](CSCc1c(C)c(=O)n2c(=O)c(C)c(C)n12)C(=O)N[C@H]1[C@@H](O[C@@H]2[C@H](O)[C@H](O)[C@@H](O)[C@H](O)[C@H]2O)O[C@H](CO)[C@@H](O)[C@@H]1O. The experiment in a line: purified protein. As to conditions: amidase activity, 10 µM enzyme, 0-10 mM MSmB, 50 mM HEPES pH 7.5, 37°C, Table 6 prints 92.34±1.5 mM and kcat unit min^-1.
Source text: fluorescamine assay of released amine, Eadie-Hofstee on C. glutamicum Mca (mycothiol S-conjugate amidase; His6-Mca)

Converted amounts (≈) assume the structure as drawn. Some results are limits rather than exact numbers.

For the compound `O=C(O)c1cn(C2CC2)c2cc(N3CCNCC3)c(F)cc2c1=O` [Ciprofloxacin], the MIC in series [1] came out at 1.56 µg/mL (≈ 4.71 µM). Turning to `CC[C@H]1OC(=O)[C@H](C)[C@@H](O[C@H]2C[C@@](C)(OC)[C@@H](O)[C@H](C)O2)[C@H](C)[C@@H](O[C@@H]2O[C@H](C)C[C@H](N(C)C)[C@H]2O)[C@](C)(O)C[C@@H](C)C(=O)[C@H](C)[C@@H](O)[C@]1(C)O` [Erythromycin], the MIC in series [1] came to 25 µg/mL (≈ 34.1 µM).

As to `CCC[C@@H]1C[C@@H](C(=O)N[C@@H]([C@H]2O[C@H](SC)[C@H](O)[C@@H](O)[C@H]2O)[C@@H](C)O)N(C)C1` [Lincomycin], in series [1], the MIC amounted to 62.5 µg/mL (≈ 154 µM).

With `NC[C@@H]1O[C@H](O[C@H]2[C@@H](O)[C@H](O[C@@H]3[C@@H](O)[C@H](N)C[C@H](N)[C@H]3O[C@H]3O[C@H](CN)[C@@H](O)[C@H](O)[C@H]3N)O[C@@H]2CO)[C@H](N)[C@@H](O)[C@@H]1O` [Neomycin], in series [1], the MIC came out at 7.5 µg/mL (≈ 12.2 µM). Regarding `CC1(C)S[C@@H]2[C@H](NC(=O)Cc3ccccc3)C(=O)N2[C@H]1C(=O)O` [Penicillin], in series [1], the MIC was more than 350 µg/mL. Take `CO[C@H]1/C=C/O[C@@]2(C)Oc3c(C)c(O)c4c(c3C2=O)C(=O)C=C(NC(=O)/C(C)=C\C=C\[C@H](C)[C@H](O)[C@@H](C)[C@@H](O)[C@@H](C)[C@H](OC(C)=O)[C@@H]1C)C4=O` [Rifamycin S]: in series [1], the MIC was 12.5 µg/mL (≈ 18 µM). As to `CN[C@@H]1[C@H](O)[C@H](NC)[C@H]2O[C@@]3(O)C(=O)C[C@@H](C)O[C@H]3O[C@@H]2[C@H]1O` [Spectinomycin], the MIC in series [1] came out at 128 µg/mL (≈ 385 µM). As for `CN[C@@H]1[C@H](O[C@H]2[C@H](O[C@H]3[C@H](O)[C@@H](O)[C@H](N=C(N)N)[C@@H](O)[C@@H]3N=C(N)N)O[C@@H](C)[C@]2(O)C=O)O[C@@H](CO)[C@H](O)[C@H]1O` [Streptomycin], the “MIC (µg ml^−1) / WT(pXMJ19)” value in series [1] (inhibitor) was 1.25 ug/mL. For the compound `CN(C)[C@@H]1C(O)=C(C(N)=O)C(=O)[C@@]2(O)C(O)=C3C(=O)c4c(O)cccc4[C@@](C)(O)[C@H]3C[C@@H]12` [Tetracycline], in series [1], the MIC amounted to 3.12 µg/mL (≈ 7.03 µM). On the same count and under the same terms, then `CN[C@H](CC(C)C)C(=O)N[C@H]1C(=O)N[C@@H](CC(N)=O)C(=O)N[C@H]2C(=O)N[C@H]3C(=O)N[C@H](C(=O)N[C@H](C(=O)O)c4cc(O)cc(O)c4-c4cc3ccc4O)[C@H](O)c3ccc(c(Cl)c3)Oc3cc2cc(c3O[C@@H]2O[C@H](CO)[C@@H](O)[C@H](O)[C@H]2O[C@H]2C[C@](C)(N)[C@H](O)[C@H](C)O2)Oc2ccc(cc2Cl)[C@H]1O` [Vancomycin], with 32 µg/mL (≈ 22.1 µM). For “C. glutamicum Mca (mycothiol S-conjugate amidase; His6-Mca) (Corynebacterium glutamicum ATCC 13032)”, in series [2], the Km was determined as 92.30 ± 1.5 mM, the kcat was determined as 3.56 ± 0.9 s⁻¹ and the kcat/Km was found to be 38.5 ± 9.6 M⁻¹ s⁻¹.

A word on the Km: it is the substrate concentration at which the rate is half of its maximum. What is called kcat is the number of substrate molecules converted per active site and unit of time at saturation. By kcat/Km is commonly meant the turnover number divided by the Michaelis constant.
